Where two headings read alike, the source gives them in different places.
Tests used:
[1] = RMC-4630-01 phase 1 study: safety and tolerability
[2] = system: proliferation; assay: Proliferation in vitro; format: cell-based
From the text: SHP2 inhibition with RMC-4630 inhibits ERK phosphorylation (pERK) and proliferation in vitro. Inhibition of pERK may be used as an assay monitoring or determining efficacy of treatment with a SHP2 inhibitor of the disclosure.

[3] = system: NCI-H358 KRASG12C xenograft model; assay: NCI-H358 KRASG12C xenograft model, anti-tumor activity and exposure; format: in vivo
[4] = RMC-4630-01 phase 1 study: pharmacokinetics in patients; format: in vivo, human; conditions: for AUC(0-t) / Cmax / Tmax / half-life: human, plasma, oral; for Cmax: read-out: Cmax [Mean(CV %)]; for Tmax: read-out: Median Tmax (range)
From the text: RMC-4630-01 is a phase 1 dose escalation study in patients with advanced cancers that evaluates the safety, pharmacokinetics and pharmacodynamic effects of RMC-4630 as a single agent under two different dose administration schedules; daily dosing and twice weekly dosing.
The RMC-4630-01 study was initially designed to evaluate two different schedules: a daily dosing schedule and an intermittent dosing schedule (D1, D4 of every week).

[5] = 140 mg, 140 mg twice weekly (D1, D4), Cycle/Day 1/1
[6] = 140 mg, 140 mg twice weekly (D1, D4), Cycle/Day 1/15
[7] = 200 mg, 200 mg twice weekly (D1, D4), Cycle/Day 1/1
[8] = 200 mg, 200 mg twice weekly (D1, D4), Cycle/Day 1/15

Cc1nc(N2CCC3(CC2)CO[C@@H](C)[C@H]3N)c(CO)nc1Sc1ccnc(N)c1Cl [RMC-4630]
QTc, single reading in one patient (SAE, causality considered absent or unlikely by Sponsor) ([1]; 60 mg daily, no dose for three days, history of prolonged QTc, ondansetron): grade 3 prolongation of QTc
safety/tolerability of schedule ([1]; D1, D2 schedule): improved safety/tolerability
maximum tolerated dose ([1]; D1, D4 schedule): 140 mg
deaths (grade 5 AEs) ascribed to drug ([1]; daily administration): No deaths
maximum tolerated dose (putative MTD) ([1]; daily schedule): 60 mg
patients with increase in alanine transaminase attributed to drug, all grades ([1]; daily schedule): 10%
patients with increase in aspartate transaminase attributed to drug, all grades ([1]; daily schedule): 16%
pneumonitis ([1]; daily schedule): no reports
recommended phase 2 dose ([1]; daily schedule): ~60 mg
toxicities consistent with off-target effects ([1]; daily schedule): No toxicities
AEs with daily dosing compared with intermittent schedule ([1]; daily schedule, 49 patients): more frequent and severe AEs than the intermittent schedule
patients with toxicities involving the lungs or respiratory system attributed in part to drug ([1]; daily schedule, eight patients): 16%
serious adverse events possibly or probably related to study drug ([1]; daily schedule, three events): 6%
patients with grade 3 or grade 4 increase in alanine transaminase or aspartate transaminase ([1]; daily schedule, two patients): 4%
related grade 4 or grade 5 AEs ([1]; intermittent D1, D4 schedule, 14 patients): No related grade 4 or grade 5 AEs
related SAE reported (grade 3 abdominal distension) ([1]; intermittent schedule, patient with pancreatic cancer, 200 mg twice weekly): One
systemic activation of the immune system ([1]; treated subjects): little evidence
effect on proliferation [2]: inhibits
plasma exposure relative to the EC75 ([3]; 10 mg/kg daily): did not exceed the EC75
anti-tumor effect ([3]; 10 mg/kg daily (no regressions)): tumor growth inhibition
anti-tumor effect ([3]; 30 mg/kg daily): Tumor regressions
time plasma exposures exceeded the EC75 ([3]; 30 mg/kg daily): 4 to 6 h
total exposure over a 24 hour period ([4]; 60 mg daily (putative MTD)): 14.6 µM·h
Mean accumulation (AUC0-24 ratio) ([4]; 140 mg twice weekly (D1, D4), Cycle/Day 1/15): 1.3
Cmax concentrations compared with the apoptotic threshold ([4]; 200 mg D1, D2): generally above
trough concentrations towards the end of the week ([4]; 200 mg D1, D2): below those thought to be required for normal tissue recovery
Mean accumulation (AUC0-24 ratio) ([4]; 200 mg twice weekly (D1, D2), Cycle/Day 1/15): 1.0
Mean accumulation (AUC0-24 ratio) ([4]; 200 mg twice weekly (D1, D4), Cycle/Day 1/15): 1.1
plasma exposure compared with range active in preclinical models ([4]; both dose levels (140 mg, 200 mg), D1, D4 schedule): within the range anticipated to be biologically active
exposure versus dose ([4]; daily dosing): increased approximately proportionally with increasing dose
time to steady state of plasma concentrations ([4]; daily dosing): ≤ 22 days
AUC(0-t) ([4]; 140 mg, 140 mg twice weekly (D1, D4), Cycle/Day 1/1, read-out: AUC0-24 [Mean(CV %)]): 10.8 µM·h
AUC(0-t) ([4]; 140 mg, 140 mg twice weekly (D1, D4), Cycle/Day 1/1, read-out: AUC0-72 [Mean(CV %)]): 19.7 µM·h
Cmax [4, 5]: 915 nM
Tmax [4, 5]: 2 h
half-life ([4]; 140 mg, 140 mg twice weekly (D1, D4), Cycle/Day 1/1, read-out: Median t1/2 (range) (converted)): 28 h
AUC(0-t) ([4]; 140 mg, 140 mg twice weekly (D1, D4), Cycle/Day 1/15, read-out: AUC0-24 [Mean(CV %)]): 14 µM·h
Cmax [4, 6]: 935 nM
Tmax [4, 6]: 2 h
half-life ([4]; 140 mg, following a single dose at 140 mg, read-out: median half-life (converted)): ~28 h
AUC(0-t) ([4]; 200 mg, 200 mg twice weekly (D1, D2), Cycle/Day 1/1, read-out: AUC0-24 [Mean(CV %)]): 13.9 µM·h
Cmax ([4]; 200 mg, 200 mg twice weekly (D1, D2), Cycle/Day 1/1): 1580 nM
Tmax ([4]; 200 mg, 200 mg twice weekly (D1, D2), Cycle/Day 1/1, time post D2 dosing): 3 h
AUC(0-t) ([4]; 200 mg, 200 mg twice weekly (D1, D2), Cycle/Day 1/15, read-out: AUC0-24 [Mean(CV %)]): 14.5 µM·h
Cmax ([4]; 200 mg, 200 mg twice weekly (D1, D2), Cycle/Day 1/15): 1630 nM
Tmax ([4]; 200 mg, 200 mg twice weekly (D1, D2), Cycle/Day 1/15, time post D16 dosing): 2 h
AUC(0-t) ([4]; 200 mg, 200 mg twice weekly (D1, D4), Cycle/Day 1/1, read-out: AUC0-24 [Mean(CV %)]): 17.5 µM·h
AUC(0-t) ([4]; 200 mg, 200 mg twice weekly (D1, D4), Cycle/Day 1/1, read-out: AUC0-72 [Mean(CV %)]): 39 µM·h
Cmax [4, 7]: 1380 nM
Tmax [4, 7]: 2 h
half-life ([4]; 200 mg, 200 mg twice weekly (D1, D4), Cycle/Day 1/1, read-out: Median t1/2 (range) (converted)): 33 h
AUC(0-t) ([4]; 200 mg, 200 mg twice weekly (D1, D4), Cycle/Day 1/15, read-out: AUC0-24 [Mean(CV %)]): 18.6 µM·h
Cmax [4, 8]: 1230 nM
Tmax [4, 8]: 3 h
half-life ([4]; 200 mg, following a single dose at 200 mg, read-out: median half-life (converted)): ~33 h
half-life ([4]; po, patients, D1, D4 intermittent schedule, read-out: half-life (estimated) (converted)): 25 h
accumulation from day 1 to day 15 ([4]; twice weekly intermittent dosing (D1, D4 or D1, D2)): No accumulation

Reference: patent US20230070338A1, “SHP2 Inhibitor Dosing and Methods of Treating Cancer” (Revolution Medicines, Inc., priority 2020, published 2023)
